Where a SMILES comes first, the peptide text is derived from it. Bridges are numbered along the chain shown (N, C = ends). [ ]: non-standard residue; d: D form. The star is where a group is joined. hPhe(3-Cl-4-CF3) = N[C@@H](CCc1ccc(C(F)(F)F)c(Cl)c1)C(=O)O; NPrPhe(4-CF3) = CCCN[C@@H](Cc1ccc(C(F)(F)F)cc1)C(=O)O; NEtPhe(4-Me) = CCN[C@@H](Cc1ccc(C)cc1)C(=O)O; NMeGly(cPent) = CN[C@H](C(=O)O)C1CCCC1; Pro(4,4-F2) = O=C(O)[C@@H]1CC(F)(F)CN1; Hyp = O=C(O)[C@@H]1C[C@@H](O)CN1; NMeD = CN[C@@H](CC(=O)O)C(=O)O; NMeL = CN[C@@H](CC(C)C)C(=O)O; Morpholide = C1CN(*)CCO1; NMeA = CN[C@@H](C)C(=O)O; Ac5c = NC1(C(=O)O)CCCC1; Aze = O=C(O)[C@@H]1CCN1; Ac4c = NC1(C(=O)O)CCC1; X4 = C1CCC(*)OC1; Sar = CNCC(=O)O
Legend:
HRAS wild-type protein = HRAS wild-type protein (Homo sapiens, UniProt P01112); experiment: Binding to HRAS by surface plasmon resonance (SPR), KD and KD ratio to KRAS
HRAS wild-type protein, sequence (P01112 whole entry): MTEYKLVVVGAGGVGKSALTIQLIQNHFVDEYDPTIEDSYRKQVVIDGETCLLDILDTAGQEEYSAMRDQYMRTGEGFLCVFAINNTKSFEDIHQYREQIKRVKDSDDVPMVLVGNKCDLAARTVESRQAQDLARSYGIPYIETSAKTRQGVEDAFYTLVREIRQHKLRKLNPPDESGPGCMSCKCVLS
How it was run: (§1)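 Recombinant RAS proteins bearing a biotinylated Avi tag and loaded with GDP served as the captured ligand, recaptured fresh every cycle. Binding responses were referenced to an uncoated surface and a buffer-only blank cycle. Dissociation constants were obtained by 1:1 model fitting at 30°C.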

[1] = biological target: GDP-bound KRAS wild-type protein (Homo sapiens, UniProt P01116); experiment: Binding to KRAS by surface plasmon resonance (SPR), dissociation constant KD
GDP-bound KRAS wild-type protein, sequence (P01116 1-188 isoform P01116-2): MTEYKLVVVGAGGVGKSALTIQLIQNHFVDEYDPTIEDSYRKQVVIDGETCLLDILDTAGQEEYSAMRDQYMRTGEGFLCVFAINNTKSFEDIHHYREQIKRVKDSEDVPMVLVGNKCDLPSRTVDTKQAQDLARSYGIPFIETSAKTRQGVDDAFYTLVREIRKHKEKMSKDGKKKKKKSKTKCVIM
How it was run: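 Single-cycle kinetics on GDP-loaded biotin-Avi RAS captured to ~100–300 RU; 75 s ascending injections, 100 µL/min, 30°C. HBS pH 7.4 + 10 mM MgCl2/10 µM GDP/4% DMSO. 1:1 fit, KD.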

[2] = biological target: GDP-bound NRAS wild-type protein (Homo sapiens, UniProt P01111); experiment: Binding to NRAS by surface plasmon resonance (SPR), KD and KD ratio to KRAS
GDP-bound NRAS wild-type protein, sequence (P01111 whole entry): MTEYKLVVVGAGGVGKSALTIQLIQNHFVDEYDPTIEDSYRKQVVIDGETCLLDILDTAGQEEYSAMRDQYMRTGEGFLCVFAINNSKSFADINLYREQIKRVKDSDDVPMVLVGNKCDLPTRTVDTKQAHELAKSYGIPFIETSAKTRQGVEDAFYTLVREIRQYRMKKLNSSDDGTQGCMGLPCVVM
How it was run: as §1

[3] = system: human lung cancer strain NCI-H441; type: cell-based
How it was run: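 Signal came from […] measured per well once the reagent was added. Beforehand, cells were cultured at 37°C and 5% carbon dioxide on a compound series serially diluted in dimethyl sulfoxide.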

[4] = ratio of KD for HRAS wild-type protein to KD for KRAS
[5] = ratio of KD for GDP-bound NRAS wild-type protein to KD for KRAS
[6] = ratio of the KD value with respect to HRAS wild-type protein to the KD value with respect to KRAS
[7] = Single Cycle Kinetics, 1:1 binding model
[8] = ratio of the KD value with respect to GDP-bound NRAS wild-type protein to the KD value with respect to KRAS

Row | SMILES | HRAS /KRAS (HRAS wild-type protein; [4]) | Kd ([1]; 1:1 binding model) | NRAS /KRAS [2, 5] | IC50 [3] | HRAS /KRAS (HRAS wild-type protein; [6]) | Kd [1, 7] | NRAS /KRAS [2, 8] | Kd ([1]; Single Cycle Kinetics)
1 | CCO[C@@H]1C[C@H]2C(=O)NC3(CC(C)(C)C3)C(=O)N(C)[C@@H](C3CCCC3)C(=O)N(C)[C@H](C(=O)N(C)CC)CC(=O)N(C)[C@@H](CC(C)C)C(=O)N[C@@H]([C@@H](C)CC)C(=O)N(C)CC(=O)N(C)[C@H]3C/C=C\CCN(C3=O)[C@@H](Cc3ccc(C(F)F)cc3)C(=O)N(C)CC(=O)N[C@@H](CCc3ccc(C4CC4)c(Cl)c3)C(=O)N2C1 [PP3155] | A (a compound having 10 or more and less than 20 is denoted as A) | 0.64 nM | A (a compound having 10 or more and less than 20 is denoted as A) | 62.5 nM |  |  |  | 
2 | CCO[C@@H]1C[C@H]2C(=O)NC3(CCC3)C(=O)N(C)[C@@H](C3CCCC3)C(=O)N(C)[C@H](C(=O)N(C)CC)CC(=O)N(C)[C@H]3CCCCCCc4ccc(cc4)C[C@@H](C(=O)N(C)CC(=O)N[C@@H](CCc4ccc(C(F)(F)F)c(OC)c4)C(=O)N2C1)N1CC/C=C\C[C@@H](C1=O)N(C)C(=O)CN(C)C(=O)[C@H]([C@@H](C)CC)NC3=O [PP2263] |  |  |  | 19.5 nM | A (a compound having 10 or more and less than 20 is denoted as A) | 0.98 nM | A (a compound having 10 or more and less than 20 is denoted as A) | 
3 | CCO[C@@H]1C[C@H]2C(=O)NC3(CCC3)C(=O)N(C)[C@@H](C3CCCC3)C(=O)N(C)[C@H](C(=O)N(C)C)CC(=O)N(CC)[C@@H](CC(C)C)C(=O)N[C@@H]([C@@H](C)CC)C(=O)N(C)CC(=O)N(C)[C@H]3CC(C)=C(C)CN(C3=O)[C@@H](Cc3ccc(C(F)(F)F)cc3)C(=O)N(C)CC(=O)N[C@@H](CCc3cc(F)c(C(F)(F)F)c(F)c3)C(=O)N2C1 [PP1051] | C (A compound having a KD ratio of 0.1 or more and less than 3 is denoted as C) |  | C (A compound having a KD ratio of 0.1 or more and less than 3 is denoted as C) | 286 nM |  |  |  | 1.8 nM
4 | CCO[C@@H]1C[C@H]2C(=O)NC3(CCC3)C(=O)N(C)[C@@H]([C@H](C)CC)C(=O)N(C)[C@H](C(=O)N3CCOCC3)CC(=O)N(C)[C@@H](CC(C)C)C(=O)N[C@@H]([C@@H](C)CC)C(=O)N(C)CC(=O)N(C)[C@H]3CCCCCN(C3=O)[C@@H](Cc3ccc(C(F)(F)F)cc3)C(=O)N(C)CC(=O)N[C@@H](CCc3cc(F)c(C(F)(F)F)c(F)c3)C(=O)N2C1 [PP0821] | B (a compound having 3 or more and less than 10 is denoted as B) |  | A (a compound having 10 or more and less than 20 is denoted as A) | 250 nM |  |  |  | 2 nM
5 | CC[C@H](C)[C@@H]1NC(=O)[C@H](CC(C)C)N(C)C(=O)C[C@@H](C(=O)N2CCOCC2)N(C)C(=O)[C@H](C2CCCC2)N(C)C(=O)C2(CCCC2)NC(=O)[C@@H]2C[C@@H](OC3CCCCO3)CN2C(=O)[C@H](CCc2ccc(C(F)(F)F)c(Cl)c2)NC(=O)CN(C)C(=O)[C@H](Cc2ccc(C)cc2)N(CC)C(=O)[C@@H]2CCN2C(=O)[C@H](C)N(C)C1=O (some centres unmarked) [PP0067] ([NMeL]I[NMeA][Aze][NEtPhe(4-Me)][Sar][hPhe(3-Cl-4-CF3)][Hyp](X4)[Ac5c][NMeGly(cPent)][NMeD]-Morpholide; lactam N-11) | C (A compound having a KD ratio of 0.1 or more and less than 3 is denoted as C) | 0.072 nM | C (A compound having a KD ratio of 0.1 or more and less than 3 is denoted as C) | 2.7 nM |  |  |  | 
6 | CCO[C@@H]1C[C@H]2C(=O)NC3(CCC3)C(=O)N(C)[C@@H](C3CCCC3)C(=O)N(C)[C@H](C(=O)N(C)C)CC(=O)N(C)[C@@H](CC)C(=O)N[C@@H]([C@@H](C)CC)C(=O)N(C)CC(=O)N(C)[C@H]3CCCCCN(C3=O)[C@@H](Cc3ccc(F)c(C)c3)C(=O)N(C)CC(=O)N[C@@H](CCc3cc(F)c(C(F)(F)F)c(F)c3)C(=O)N2C1 [PP0912] | B (a compound having 3 or more and less than 10 is denoted as B) |  | B (a compound having 3 or more and less than 10 is denoted as B) | 40.5 nM |  |  |  | 0.32 nM
7 | CCCN1C(=O)CN(C)C(=O)[C@@H]2CCN2C(=O)[C@H]([C@@H](C)CC)NC(=O)[C@H](CC(C)C)N(C)C(=O)C[C@@H](C(=O)N(C)C)NC(=O)[C@H](C2CCCC2)N(C)C(=O)C2(CCC2)NC(=O)[C@@H]2CC(F)(F)CN2C(=O)[C@H](CCc2ccc(C(F)(F)F)c(Cl)c2)NC(=O)CN(C)C(=O)[C@@H]1Cc1ccc(C(F)(F)F)cc1 [PP0376] ([NMeL]I[Aze][Sar][NPrPhe(4-CF3)][Sar][hPhe(3-Cl-4-CF3)][Pro(4,4-F2)][Ac4c][NMeGly(cPent)]D-NMe2; lactam N-11) | B (a compound having 3 or more and less than 10 is denoted as B) | 2 nM | B (a compound having 3 or more and less than 10 is denoted as B) | 114 nM |  |  |  | 
8 | CCCN1C(=O)CN(C)C(=O)[C@@H]2CCN2C(=O)[C@H]([C@@H](C)CC)NC(=O)[C@H](CC(C)C)N(C)C(=O)C[C@@H](C(=O)N2CCOCC2)N(C)C(=O)[C@H](C2CCCC2)N(C)C(=O)C2(CCC2)NC(=O)[C@@H]2CC(F)(F)CN2C(=O)[C@H](CCc2ccc(C(F)(F)F)c(Cl)c2)NC(=O)CN(C)C(=O)[C@@H]1Cc1ccc(C(F)(F)F)cc1 [PP0404] ([NMeL]I[Aze][Sar][NPrPhe(4-CF3)][Sar][hPhe(3-Cl-4-CF3)][Pro(4,4-F2)][Ac4c][NMeGly(cPent)][NMeD]-Morpholide; lactam N-11) |  |  |  | 21.7 nM | C (A compound having a KD ratio of 0.1 or more and less than 3 is denoted as C) | 0.37 nM | B (a compound having 3 or more and less than 10 is denoted as B) | 
9 | CC[C@H](C)[C@@H]1NC(=O)[C@H](CC2CC2)N(C)C(=O)C[C@@H](C(=O)N(C)CC)N(C)C(=O)[C@H](C2CCCC2)N(C)C(=O)C2(CC(C)(C)C2)NC(=O)[C@@H]2C[C@@H](C)CN2C(=O)[C@H](CCc2ccc(C(F)(F)F)c(OC)c2)NC(=O)CN(C)C(=O)[C@H](Cc2ccc(C)cc2)N2CC/C=C\C[C@@H](C2=O)N(C)C(=O)CN(C)C1=O [PP1902] |  |  |  | 12.5 nM | A (a compound having 10 or more and less than 20 is denoted as A) | 0.2 nM | A (a compound having 10 or more and less than 20 is denoted as A) | 
10 | CCO[C@@H]1C[C@H]2C(=O)NC3(CCC3)C(=O)N(C)[C@@H](C3CCCC3)C(=O)N(C)[C@H](C(=O)N(C)C)CC(=O)N(C)[C@@H](CC)C(=O)N[C@@H]([C@@H](C)CC)C(=O)N3CCCC[C@H]3C(=O)N(C)[C@H]3C/C=C\CCN(C3=O)[C@@H](Cc3ccc(C(F)(F)F)cc3)C(=O)N(C)CC(=O)N[C@@H](CCc3cc(F)c(C(F)(F)F)c(F)c3)C(=O)N2C1 [PP1058] | B (a compound having 3 or more and less than 10 is denoted as B) |  | A (a compound having 10 or more and less than 20 is denoted as A) | 599 nM |  |  |  | 2.9 nM
11 | CCO[C@@H]1C[C@H]2C(=O)NC3(CCC3)C(=O)N(C)[C@@H](C3CCCC3)C(=O)N(C)[C@H](C(=O)N(C)C)CC(=O)N(C)[C@@H](CC3CCCC3)C(=O)N[C@@H]([C@@H](C)CC)C(=O)N(C)CC(=O)N(C)[C@H]3CCCCCN(C3=O)[C@@H](Cc3ccc(C(F)(F)F)cc3)C(=O)N(C)CC(=O)N[C@@H](CCc3cc(F)c(C(F)(F)F)c(F)c3)C(=O)N2C1 [PP0670] |  |  |  | 11.3 nM | B (a compound having 3 or more and less than 10 is denoted as B) | 0.28 nM | B (a compound having 3 or more and less than 10 is denoted as B) | 

Reference: EP4603105A1, “PHARMACEUTICAL COMPOSITION CONTAINING CYCLIC COMPOUND HAVING SELECTIVE KRAS INHIBITORY EFFECT AGAINST HRAS AND NRAS” (CHUGAI SEIYAKU KABUSHIKI KAISHA, priority 2022, dated 2024)
